Source: publication PMC9785777, “Antidiabetic Potential of Novel 1,3,5-Trisubstituted-2-Thioxoimidazloidin-4-One Analogues: Insights into α-Glucosidase, α-Amylase, and Antioxidant Activities” (Pharmaceuticals, 2022)

How the values were obtained:
[1] = target: T1, α-glucosidase enzyme (EC3.2.1.20) (Saccharomyces cerevisiae, UniProt P53341); assay: biochemical; conditions: for inhibition at 1 µg/mL / inhibition at 10 µg/mL / inhibition at 100 µg/mL / inhibition at 1000 µg/mL: read-out: % inhibition of α-glucosidase
T1 construct: purchased Sigma-Aldrich
T1 sequence (P53341 whole entry): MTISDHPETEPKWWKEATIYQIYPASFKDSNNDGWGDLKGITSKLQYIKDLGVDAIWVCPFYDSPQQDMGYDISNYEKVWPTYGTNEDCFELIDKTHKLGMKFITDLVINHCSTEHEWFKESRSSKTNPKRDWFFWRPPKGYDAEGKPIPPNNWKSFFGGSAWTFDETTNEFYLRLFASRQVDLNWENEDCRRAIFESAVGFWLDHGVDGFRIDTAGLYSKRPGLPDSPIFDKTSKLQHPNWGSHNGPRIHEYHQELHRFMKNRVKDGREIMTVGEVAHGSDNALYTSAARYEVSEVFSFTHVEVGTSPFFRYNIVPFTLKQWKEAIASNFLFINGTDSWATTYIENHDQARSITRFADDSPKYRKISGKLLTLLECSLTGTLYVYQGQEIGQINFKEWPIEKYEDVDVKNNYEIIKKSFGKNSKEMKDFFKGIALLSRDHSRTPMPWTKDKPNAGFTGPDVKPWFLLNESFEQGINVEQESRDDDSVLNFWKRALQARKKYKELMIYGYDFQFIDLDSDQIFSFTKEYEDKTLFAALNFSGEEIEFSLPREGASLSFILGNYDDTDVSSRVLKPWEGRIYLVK
Description: The α-glucosidase enzyme is mainly expressed in the small intestine and catalyzes the breakdown of carbohydrates into glucose units by cleaving the glucosidic bonds. α-Glucosidase blockers are the first-line drugs for the treatment of non-insulin-dependent DM by suppressing carbohydrate hydrolysis and consequently retarding glucose absorption into the bloodstream and reducing postprandial hyperglycemia. α-Glucosidase is, thus, considered to be an attractive pharmaceutical target for the treatment of […] via control of the blood glucose levels. Accordingly, there is a continuous need to develop a potential class of α-glucosidase inhibitors. Toward this aim, we explored the potency of the synthesized compounds to inhibit the activity of α-glucosidase. We examined the inhibitory activity of the synthesized compounds following the reported assay by Peytam et al.. Thus, the compounds at different concentrations (1000, 100, 10, and 1 µg/mL) were incubated with α-glucosidase and subsequently […] was added and the absorbance was monitored at 405 nm. […] To further investigate the structural aspects of 1,3-thiohydantoin scaffold, a substitution at the N1-position with the methyl-proponate group was performed. […] Nevertheless, it has adverse gastrointestinal effects including diarrhea and flatulence. Thus, the discovery of a novel class of potent antidiabetic agents is urgently demanded.
An ELISA reader was used to assess the inhibition of α-glucosidase by 1,3,5-trisubstituted-2-thioxoimidazolidin-4-ones derivatives at various doses (1000, 100, 10, and 1 µg/mL) according to Peytam et al.. […] Then, the substrate (25 µL, 4 mM) was added to the mentioned mixture and allowed to incubate at 37 °C for 20 min. Finally, the change in absorbance at 405 nm was monitored using a Cytation 3 hybrid microplate reader (BioTek, Winooski, VT, USA). […] GraphPad prism 6.0 was used to calculate the IC50 values of the investigated compounds from the nonlinear regression curve (Systat Software, Inc. Tools for Science) (https://www.graphpad.com/scientific-software/prism/ (accessed on 1 September 2022)).

α-amylase enzyme = target: T2, α-amylase enzyme (Sus scrofa, UniProt P00690); assay: α-amylase inhibition assay (DNSA, absorbance 595 nm); format: biochemical
T2 sequence (P00690 16-511): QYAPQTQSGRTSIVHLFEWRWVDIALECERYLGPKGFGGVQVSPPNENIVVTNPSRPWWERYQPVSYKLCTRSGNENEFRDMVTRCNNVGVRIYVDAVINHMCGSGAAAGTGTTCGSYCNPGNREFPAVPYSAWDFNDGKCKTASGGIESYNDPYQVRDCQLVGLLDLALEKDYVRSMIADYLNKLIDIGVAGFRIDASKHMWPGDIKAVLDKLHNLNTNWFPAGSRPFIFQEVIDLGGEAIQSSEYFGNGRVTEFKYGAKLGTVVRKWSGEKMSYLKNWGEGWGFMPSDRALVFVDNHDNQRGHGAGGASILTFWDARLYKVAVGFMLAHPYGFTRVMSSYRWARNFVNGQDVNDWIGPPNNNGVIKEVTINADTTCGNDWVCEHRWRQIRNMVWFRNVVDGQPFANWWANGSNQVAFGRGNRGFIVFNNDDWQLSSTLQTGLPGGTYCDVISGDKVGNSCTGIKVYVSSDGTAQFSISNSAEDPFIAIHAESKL
Description: Furthermore, pancreatic α-amylase mediates the activity of glycoproteins in the small intestine membrane, such as sucrase-isomaltase and sodium/glucose cotransporter 1, via binding with N-linked oligosaccharides. […] However, attempts to find novel antagonists with enhanced effectiveness and minimum adverse effects are still worth investigating. In this regard, we examined the inhibitory activity of the synthesized compounds 4a–b, 5a–b, and 7a–b toward α-amylase activity. Therefore, compounds at different concentrations (100, 10, 1, and 0.1 µg/mL) were mixed with the α-amylase enzyme and subsequently 3,5-dinitrosalicylic acid was added and the absorption was assessed at 595 nm. […] To date, several potent natural and synthetic antagonists with dual inhibitory activities toward α-amylase and α-glucosidase enzymes have been reported which succeeded in being applied in clinics.
The inhibitory activity of synthesized 1,3,5-trisubstituted-2-thioxoimidazolidin-4-ones derivatives toward α-amylase activity was determined by ELISA analysis according to Bernfeld and Colowick. The α-amylase enzyme was provided by Sigma-Aldrich and the stock solution was prepared in DMSO (10 mg/10 mL). […] Briefly, α-amylase enzyme (100 mg, 1 unit per mL) was mixed in 100 mL of a 20 mM sodium phosphate buffer (pH 6.9). […] After incubation, 100 μL of the DNSA reagent was added to this mixture, and then heated in a water bath at 85 °C for 15 min. The reaction mixture was taken from the water bath, cooled, and the absorbance value at 595 nm was assessed. Individual blanks were created in order to adjust the background absorbance. A control experiment was carried out following the same protocol using DMSO. The α-amylase enzyme activity and percentage of inhibition were determined using the following formula: % Inhibition=control−test/control×100

[2] = DPPH free radical scavenging assay
Description: The antioxidant capability of compounds 5a and 7a was estimated utilizing the DPPH (2,2-diphenyl-1- picrylhydrazyl) scavenging assay to assess the free radical scavenger activity. DPPH is a stable free radical substrate with a purple color which upon reaction with an antioxidant compound, converts into 1,1-diphenyl-2-picryl hydrazine, a […] compound. The DPPH assay is widely applied for the investigation of superoxide radical scavenging activity. In this regard, compounds 5a and 7a were incubated at different concentrations (3.12, 6.25, 12.5, 25, 50, 100, and 200 µg/mL) with DPPH substrate and the absorption was assessed by ELISA at 510 nm. In our investigations, Trolox, a water-soluble analogue of vitamin E, was applied as a standard antioxidant reference drug. […] Further, Qamar et al. synthesized and evaluated the antioxidant activity of some novel N3-substituted-2-thiohydantoins.
According to Valko et al., the ELISA approach was used to analyze the free-radical DPPH scavenging activity of compounds (5a and 7a) at different concentrations (3.12, 6.25, 12.5, 25, 50, 100, and 200 µg/mL). The DPPH assay assesses the hydrogen-donating activity and thus provides an evaluation of the antioxidant activity via estimating the DPPH free-radical scavenging activity. The color intensity of the reaction mixture was measured after a purple-colored stable free radical (DPPH) was reduced into the yellow-colored diphenylpicryl hydrazinem. Briefly, 200 µL of different concentrations of compounds 5a and 7a were mixed with 50 µL of DPPH (0.659 mM) solution, and the mixture was incubated at 25 °C for 20 min. The absorbance of the reaction mixture was estimated after incubation at 510 nm. In our investigations, trolox was employed as standard reference drug. A control reaction was performed, and the inhibitory efficiency of DPPH radical-scavenging activity was determined using the equation below: % Inhibition = (A0 − A1)/A0 × 100 (1) where A0 is absorbance of […] and A1 is the absorbance of the compound.

DPPH free radical scavenging IC50 ([2]; n = 4) | SMILES | IC50 [1] | inhibition at 1 µg/mL [1] | inhibition at 10 µg/mL [1] | inhibition at 100 µg/mL [1] | inhibition at 1000 µg/mL [1] | melting point | % inhibition of α-amylase (α-amylase enzyme; 0.1 µg/mL (log -1)) | % inhibition of α-amylase (α-amylase enzyme; 1 µg/mL (log 0)) | % inhibition of α-amylase (α-amylase enzyme; 10 µg/mL (log 1)) | % inhibition of α-amylase (α-amylase enzyme; 100 µg/mL (log 2)) | %RSA (DPPH radical scavenging activity) ([2]; 3.12 µg/mL) | %RSA (DPPH radical scavenging activity) ([2]; 6.25 µg/mL) | %RSA (DPPH radical scavenging activity) ([2]; 12.5 µg/mL) | %RSA (DPPH radical scavenging activity) ([2]; 25 µg/mL) | %RSA (DPPH radical scavenging activity) ([2]; 50 µg/mL) | %RSA (DPPH radical scavenging activity) ([2]; 100 µg/mL) | %RSA (DPPH radical scavenging activity) ([2]; 200 µg/mL)
 | COC(=O)CCN1C(=S)N(/N=C(\C)c2ccccc2O)C(=O)/C1=C/c1cc(Br)ccc1O [Compound 5b, Methyl [5-(5-Bromo-2-hydroxybenzylidene)-4-oxo-3-(2-hydroxyphenylethylidene)amino-2-thioxoimidazolidin-1-yl] propionate] | 21.3 µM | 27.6% | 50.3% | 71.4% | 87.4% | 192 °C |  |  |  |  |  |  |  |  |  |  | 
 | C[C@H]1O[C@H](O[C@H]2[C@H](O)[C@@H](O)[C@@H](O[C@H]3[C@H](O)[C@@H](O)C(O)O[C@@H]3CO)O[C@@H]2CO)[C@H](O)[C@@H](O)[C@@H]1N[C@H]1C=C(CO)[C@@H](O)[C@H](O)[C@H]1O (stereo partly shown) [Acarbose, reference compound] |  | 31.8% | 58.4% | 76.9% | 88.4% |  | 37.2% | 58.3% | 80.3% | 92.1% |  |  |  |  |  |  | 
 | C/C(=N\N1C(=O)/C(=C/c2ccccc2O)NC1=S)c1ccccc1O [Compound 4a, 5-(2-Hydroxybenzylidene)-3-(2-hydroxyphenylethylidene)-amino-2-thioxoimidazolidin-4-one] | 57.1 µM | 24.5% | 44.9% | 62.6% | 83.1% | 256 °C |  |  |  |  |  |  |  |  |  |  | 
 | C/C(=N\N1C(=O)/C(=C/c2cc(Br)ccc2O)NC1=S)c1ccccc1O [Compound 4b, 5-(5-Bromo-2-hydroxybenzylidene)-3-(2-hydroxyphenylethylidene)-amino-2-thioxoimidazolidin-4-ones] | ~72.4 µM | 20.4% | 36.4% | 58.9% | 84.7% | 263 °C |  |  |  |  |  |  |  |  |  |  | 
58.09 µg/mL | Cc1c(C)c2c(c(C)c1O)CCC(C)(C(=O)O)O2 (stereo not shown) [Trolox, reference compound] |  |  |  |  |  |  |  |  |  |  | 11.3811% | 20.2046% | 32.4808% | 47.4425% | 63.2992% | 82.6087% | 89.0026%
 | COC(=O)CCN1C(=S)N(/N=C(\C)c2ccccc2O)C(=O)/C1=C/c1cc(Br)ccc1OC(C)=O [Compound 7b, Methyl [5-(5-bromo-2-acetoxybenzylidene)-4-oxo-3-(2-hydroxyphenylethylidene)amino-2-thioxoimidazolidin-1-yl] propionate] | 21.8 µM | 28% | 47.8% | 70.4% | 86.5% | 172 °C |  |  |  |  |  |  |  |  |  |  | 
